Each structure is given as a SMILES string. Like-named read-outs stand apart in the source and are kept apart here.

One may read the EC50 as the concentration giving half of the maximal effect.

Assay [1] has as its target T1, PPARα (Rattus norvegicus, UniProt P37230).
T1 construct: H4IIE rat hepatoma cell line was obtained from ATCC; host or cells: H4IIE rat hepatoma cells
T1 sequence (P37230 1-468): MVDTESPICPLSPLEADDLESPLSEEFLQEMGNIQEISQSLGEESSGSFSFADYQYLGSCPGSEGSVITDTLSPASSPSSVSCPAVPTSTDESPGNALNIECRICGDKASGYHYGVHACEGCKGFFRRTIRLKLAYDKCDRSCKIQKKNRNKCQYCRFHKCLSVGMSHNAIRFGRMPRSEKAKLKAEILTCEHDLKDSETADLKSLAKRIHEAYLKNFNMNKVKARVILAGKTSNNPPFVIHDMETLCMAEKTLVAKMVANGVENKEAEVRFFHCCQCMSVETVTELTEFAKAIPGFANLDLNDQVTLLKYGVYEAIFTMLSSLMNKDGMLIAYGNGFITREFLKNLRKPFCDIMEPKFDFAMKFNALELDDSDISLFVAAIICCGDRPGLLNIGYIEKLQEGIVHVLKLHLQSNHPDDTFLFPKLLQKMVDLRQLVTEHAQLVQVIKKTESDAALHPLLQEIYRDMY
The assay is described as follows: HD bDNA Assay (HD gene induction). It counts as cell-based. As to the method:
HD bDNA Assay H4IIE rat hepatoma cell line was obtained from ATCC. Cells were cultured in 175 cm^2 tissue culture flask or seeded in 96-well plate with (high serum content, 10% fetal bovine serum and 10% calf serum) culture medium and maintained at 37° C. and 5% CO2 throughout study. Twenty-four hours after the initial seeding of the 96-well plate by hand (approximate 100,000/well), the HD gene induction assay was initiated. Media was removed and replaced with 100 ul of low serum culture media (5% charcoal/dextran treated calf serum) containing vehicle (DMSO) or test compounds or standard. Cells returned to incubator for 24 hours culture. At the termination of the challenge, 50 ul lysis buffer with HD gene specific CE, LE, BL probes was added directly into each well to initiate the bDNA HD mRNA assay. The branched DNA assay was performed according to the manufacturer's protocol (Bayer Diagnostics; Emeryville. Calif.). At the end of the assay, the luminescence was quantitated in Dynex MLX microtiter plate luminometer. EC50's were determined by non-linear regression with a sigmoidal fit utilizing Graphpad Prism.

Assay [2] relates to db/db mice. The assay is described as follows: Oral dosing in female db/db mice. The format is in vivo. The following applies: Mus musculus, 240 h, 1.0 mpk, 10 day oral dosing, % change compared to vehicle. As to the method:
The compound was prepared as suspensions in 0.5% hydroxypropylmethylcellulose (Dow Chemical, Midland, Mich.). The dosing volume was 10 mL/kg of body weight. […] Body weight was measured in the mornings on Day 1, prior to dosing, and on Day 12 before bleeding. 18-24 hours after the final dose for each group, the mice were anesthetized with CO2/O2 (70:30) and bled by retro-orbital sinus puncture into micro-tubes containing clog activator and then put in ice. The serum samples were prepared by centrifugation. Serum glucose and triglycerides were determined by using COBAS Mira Plus blood chemistry analyzer (Roche Diagnostics, N.J.). Serum insulin was measured by using ALPCO insulin ELISA kit.
Statistical analysis was performed using the program Prism (Graphpad, Monrovia, Calif.) and performing one-way ANOVA with a Dunnet's multiple comparison test.

The target of assay [3] is T2, PPARδ (Homo sapiens, UniProt Q03181).
T2 construct: a Gal4-Luciferase reporter is co-transfected
T2 sequence (Q03181 171-441 limits assumed): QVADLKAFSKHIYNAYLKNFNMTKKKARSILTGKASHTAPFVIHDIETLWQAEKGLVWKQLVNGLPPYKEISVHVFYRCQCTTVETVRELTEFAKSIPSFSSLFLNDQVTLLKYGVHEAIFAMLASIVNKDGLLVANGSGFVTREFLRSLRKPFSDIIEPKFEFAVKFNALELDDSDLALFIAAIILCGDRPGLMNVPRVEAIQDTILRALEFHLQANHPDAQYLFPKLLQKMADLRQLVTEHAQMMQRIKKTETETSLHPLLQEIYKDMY
The assay is described as follows: Transfection Assay for PPARδ Receptors (PPAR-Gal4 / Gal4-Luciferase reporter in HEK293 cells). The following applies: fold induction; PPARδ standard: FI = 36.1. It counts as cell-based. As to the method:
Transfection Assay for PPARδ Receptors
HEK293 cells were grown in DMEM/F-12 Media supplemented with 10% FBS and glutamine (GIBCOBRL). The cells were co-transfected with DNA for PPAR-Gal4 receptor and Gal4-Luciferase Reporter using the DMRIE-C Reagent. On the following day, the DNA-containing medium were replaced with 5% Charcoal treated FBS growth medium. After six hours, cells were seeded in 96 well plate and incubated at 37° C. in CO2 incubator overnight. Cells were challenged by test compounds and incubated for 24 hours at 37° C. in 5% CO2 incubator. Luciferase activity was assayed using the Steady-Glo Luciferase Assay Kit from Promega. DMRIE-C Reagent was purchased from GIBCO Cat. No.10459-014. OPTI-MEM I Reduced Serum Medium was purchased from GIBCO Cat. No. 31985. Steady-Glo Luciferase Assay Kit was obtained from Promega Part# E254B.

The mark [4] stands for this setting: in section F, target not named there, values match the PPARα column, read-out: EC50.
Setting [5] is: H4IIE rat hepatoma cells, 24 hours, read-out: PPARα EC50.

Consider `CCN(C(=O)Nc1ccc(OC(F)(F)F)cc1)C1CCc2cc(SC(C)(C)C(=O)O)ccc2C1` (stereo not drawn) [Example 1, 2-{6-[1-Ethyl-3-(4-trifluoromethoxyphenyl)ureido]-5,6,7,8-tetrahydronaphthalen-2-ylsulfanyl}-2-methylpropionic acid], for which the 50% effective concentration (EC50) in assay [1] (setting [4]) is 23 nM. Further, the change in vivo at 1 mg/kg in assay [2] (read-out: Δ BW) was -12%; in assay [2] (read-out: Δ Plasma Glucose), -73%; in assay [2] (read-out: Δ Plasma Insulin), -46%; in assay [2] (read-out: Δ Plasma TG), -52%. Take `CCCCCCN(C(=O)Nc1ccc(SC(F)(F)F)cc1)C1Cc2ccc(SC(C)(C)C(=O)O)cc2C1` (stereo not drawn) [Example 15, 2-Methyl-2-{2-[1-hexyl-3-(4-trifluoromethylsulfanylphenyl)ureido]indan-5-ylsulfanyl}propionic acid]: in assay [1] (setting [4]), the EC50 was found to be 123 nM. Also, the “PPARδ FI” value in assay [3] is on record as 1.2. On the same counts, the results for `C=CCCCN(C(=O)Nc1ccc(OC(F)(F)F)cc1)C1Cc2ccc(SC(C)(C)C(=O)O)cc2C1` (stereo not drawn) [Example 19, 2-Methy-2-{2-[1-pent-4-enyl-3-(4-trifluoromethoxyphenyl)ureido]indan-5-ylsulfanyl}propionic acid] are 125 nM and 1.4.

`CCCCN(C(=O)Nc1ccc(OC(F)(F)F)cc1)C1CCc2cc(SC(C)(C)C(=O)O)ccc2C1` (stereo not drawn) [Example 22, 2-{6-[1-Butyl-3-(4-trifluoromethoxyphenyl)ureido]-5,6,7,8-tetrahydronaphthalen-2-ylsulfanyl}-2-methylpropionic acid]: the half-maximal effective concentration (EC50) in assay [1] (setting [4]) came to 219 nM.

As to `CCCCN(C(=O)Nc1ccc(SC(F)(F)F)cc1)C1CCc2cc(SC(C)(C)C(=O)O)ccc2C1` (stereo not drawn) [Example 23, 2-{6-[1-Butyl-3-(4-trifluoromethylsulfanylphenyl)ureido]-5,6,7,8-tetrahydronaphthalen-2-ylsulfanyl}-2-methylpropionic acid], the EC50 in assay [1] (setting [4]) turned out to be 244 nM.

Consider `CCCCCCN(C(=O)Nc1ccc(OC(F)(F)F)cc1)C1CCc2cc(SC(C)(C)C(=O)O)ccc2C1` (stereo not drawn) [Example 24, 2-{6-[1-Hexyl-3-(4-trifluoromethoxyphenyl)ureido]-5,6,7,8-tetrahydronaphthalen-2-ylsulfanyl}-2-methylpropionic acid], for which, in assay [1] (setting [4]), the EC50 was found to be 235 nM.

Consider `CCN(C(=O)Nc1ccc(OC(F)(F)F)c(Br)c1)C1Cc2ccc(SC(C)(C)C(=O)O)cc2C1` (stereo not drawn) [Example 25, 2-{2-[3-(3-Bromo-4-trifluoromethoxyphenyl)-1-ethylureido]indan-5-ylsulfanyl}-2-methylpropionic acid], for which, in assay [1] (setting [5]), the concentration for a half-maximal effect (EC50) came to 208 nM. Further, in assay [3], the “PPARδ FI” value worked out at 4.5. Take `CN(C)c1ccc(NC(=O)N(C)C2Cc3ccc(SC(C)(C)C(=O)O)cc3C2)cc1` (stereo not drawn) [Example 27, 2-{2-[3-(4-Dimethylaminophenyl)-1-methylureido]indan-5-ylsulfanyl}-2-methylpropionic acid]: in assay [1] (setting [5]), the concentration giving a half-maximal response (EC50) was found to be 294 nM. For the molecule `CCCCCN(C(=O)Nc1ccc2c(c1)CCC2)C1Cc2ccc(SC(C)(C)C(=O)O)cc2C1` (stereo not drawn) [Example 29, 2-[2-(3-Indan-5-yl-1-pentylureido)indan-5-ylsulfanyl}-2-methylpropionic acid], the EC50 in assay [1] (setting [5]) was 382 nM. For the molecule `CCCCCN(C(=O)Nc1ccc(C)c([N+](=O)[O-])c1)C1Cc2ccc(SC(C)(C)C(=O)O)cc2C1` (stereo not drawn) [Example 30, 2-Methyl-2-{2-[3-(4-methyl-3-nitrophenyl)-1-pentylureido]indan-5-ylsulfanyl} propionic acid], the EC50 in assay [1] (setting [5]) is 385 nM. `CC(C)(Sc1ccc2c(c1)CC(N(Cc1cccc3ccccc13)C(=O)Nc1ccc(OC(F)(F)F)cc1)C2)C(=O)O` (stereo not drawn) [Example 31, 2-Methyl-2-{2-[1-naphthalen-1 ylmethyl-3-(4-trifuoromethoxyphenyl)-ureido]indan-5-ylsulfanyl}-propionic acid]: in assay [1] (setting [5]), the EC50 was 497 nM. In the case of `COCCN(C(=O)Nc1ccc(SC(F)(F)F)cc1)C1Cc2ccc(SC(C)(C)C(=O)O)cc2C1` (stereo not drawn) [Example 34, 2-{2-[1-(2-Methoxyethyl)-3-(4-trifluoromethylsulfanylphenyl)ureido]indan-5-ylsulfanyl}-2-methylpropionic acid], the concentration for a half-maximal effect (EC50) in assay [1] (setting [5]) was 657 nM. The same measure, in the same setting: then `CC(C)(Sc1ccc2c(c1)CC(N(CCCC(F)(F)F)C(=O)Nc1ccc(OC(F)(F)F)cc1)C2)C(=O)O` (stereo not drawn) [Example 36, 2-Methyl-2-{2-[1-(4,4,4-trifluorobutyl)-3-(4-trifluoromethoxyphenyl)ureido]indan-5-ylsulfanyl}propionic acid], with 796 nM; and `COC(=O)CCCCCN(C(=O)Nc1ccc(C(C)C)cc1)C1Cc2ccc(SC(C)(C)C(=O)O)cc2C1` (stereo not drawn) [Example 38, 6-[1-[5-(1-Carboxy-1-methylethylsulfanyl)indan-2-yl]-3-(4-isopropylphenyl)-ureido]hexanoic acid methyl ester], with 950 nM; and `CC(C)(Sc1ccc2c(c1)CC(N(CC1CCCCC1)C(=O)Nc1ccc(OC(F)(F)F)cc1)C2)C(=O)O` (stereo not drawn) [Example 40, 2-{2-[1-Cyclohexylmethyl-3-(4-trifluoromethoxyphenyl)ureido]indan-5-ylsulfanyl]-2-methylpropionic acid], with 1300 nM. On the same count and under the same terms, then `CC(C)CN(C(=O)Nc1ccc(OC(F)(F)F)cc1)C1Cc2ccc(SC(C)(C)C(=O)O)cc2C1` (stereo not drawn) [Example 41, 2-{2-[1-Isobutyl-3-(4-trifluoromethoxyphenyl)ureido]indan-5-ylsulfanyl}-2-methylpropionic acid], with 2210 nM. For `CCCCCCCN(C(=O)Nc1ccc(Cl)c(Cl)c1)C1Cc2ccc(SC(C)(C)C(=O)O)cc2C1` (stereo not drawn) [Example 42, 2-{2-[3-(3,4-Dichlorophenyl)-1-heptylureido]indan-5-ylsulfanyl}-2-methylpropionic acid], the concentration giving a half-maximal response (EC50) in assay [1] (setting [5]) came to 2340 nM. Same read-out and setting: to `CN(C)CCN(C(=O)Nc1ccc(SC(F)(F)F)cc1)C1Cc2ccc(SC(C)(C)C(=O)O)cc2C1` (stereo not drawn) [Example 43, 2-{2-[1-(2-Dimethylaminoethyl)-3-(4-trifluoromethylsulfanylphenyl)ureido]indan-5-ylsulfanyl}-2-methylpropionic acid] belongs 2990 nM; to `CCCCCCCN(C(=O)Nc1cccc(Cl)c1)C1Cc2ccc(SC(C)(C)C(=O)O)cc2C1` (stereo not drawn) [Example 44, 2-{2-[3-(3-Chlorophenyl)-1-heptylureido]indan-5-ylsulfanyl}-2-methylpropionic acid], 2090 nM; to `CCCCCCCN(C(=O)Nc1ccc(OC(F)(F)F)cc1)C1Cc2ccc(SC3(C(=O)O)CCC3)cc2C1` (stereo not drawn) [Example 45, 1-{2-[1-Heptyl-3-(4-trifluoromethoxyphenyl)ureido]indan-5-ylsulfanyl}-cyclobutanecarboxylic acid], 780 nM.

These data come from US20040171680A1, “Treating Syndrome X with substituted tetralins and indanes” (priority 2002, published 2004).
